Measured values reported in PubChem BioAssay AID1996.
Converted amounts (≈) assume the structure as drawn.

Conditions: buffer; pH 7.4; 200.0 µM

SMILES | solubility kinetic [µg/mL]
Cc1ccccc1NC(=O)CC1SC(=Nc2ccc(O)cc2)NC1=O (stereo unspecified) | 2 (≈ 5.63 µM)
COc1ccc(C(=O)NC(=O)COC(=O)C2CC2C)cc1 (stereo unspecified) | 13.7 (≈ 47 µM)
Cc1nn(-c2ccccc2)c2[nH]c(=O)cc(C(F)F)c12 | > 41.3
OCCN(Cc1ccccc1)Cc1nc(CC2CC2)no1 | > 43.1
CCc1cccc(NC(=O)C2CC2c2ccccc2)c1 (stereo unspecified) | 0.7 (≈ 2.64 µM)
O=c1[nH]c2cccc(F)c2n2cccc12 | 3.2 (≈ 15.8 µM)
CCC1CCCCN1C(=O)/C=C/c1ccc2c(c1)OCO2 (stereo unspecified) | > 43.1
Cc1cc(/C=C2\NC(=S)NC2=O)c(C)n1-c1cccnc1 | 4.8 (≈ 16.1 µM)
OCCNc1cc(Cl)ncn1 | > 26
CCCS(=O)(=O)c1cnc(C2COc3ccccc3O2)nc1N (stereo unspecified) | 12.7 (≈ 37.9 µM)
COc1ccccc1C(=O)NCCC(=O)N1CCCCC1 | > 43.6
O=[N+]([O-])c1cc([N+](=O)[O-])c2cc(-c3cccnc3)[nH]c2c1 | < 0.2
CN(C)Cc1cccc([N+](=O)[O-])c1O | > 29.4
O=C(Cc1ccccc1)Nc1nc(-c2ccc(F)c(F)c2)cs1 | 0.4 (≈ 1.21 µM)
Cc1ccc2cc3c(nc2c1)N(c1ccccc1)CC3 | < 0.3
COc1ccc(CNC(=O)N2CCc3ccccc3C2)cc1Cl | 30.4 (≈ 91.9 µM)
CSc1ncccc1C(=O)NC1CCCCCC1 | 35.5 (≈ 134 µM)
Cc1cc(C(=O)NC(Cc2ccccc2)C(=O)O)c(C)o1 (stereo unspecified) | > 43.1
COc1cc(/C=C/C(=O)N2CCc3ccccc3C2)cc(OC)c1OC | 46.6 (≈ 132 µM)
Cc1cccc(C(=O)N2CCCC(Nc3ccc(C)c(C)c3)C2)n1 (stereo unspecified) | 42.1 (≈ 130 µM)
CCCn1c(SCC(=O)N2CCOCC2)nnc1-c1ccncc1 | > 52.1
COc1cccc(Nc2nc(-c3cccnc3)cs2)c1 | 1.3 (≈ 4.59 µM)
COc1cccc(CN(C)C(=O)c2ccc(N3CCCC3)c([N+](=O)[O-])c2)c1 | 21.9 (≈ 59.3 µM)
Cc1ccc(OCCn2ccnc2)c([N+](=O)[O-])c1 | 26.8 (≈ 108 µM)
CCOc1ccc(N2CC(C(=O)N3CCCCCC3)CC2=O)cc1 (stereo unspecified) | > 49.6

SMILES | solubility kinetic [µg/mL]
NS(=O)(=O)c1ccc(CCNC(=S)NC2CCCC2)cc1 | > 49.1
CSc1ncccc1C(=O)N(C)CC(=O)Nc1cccc(F)c1 | > 50
O=C(O)CN1C(=O)CSC1=S | > 28.7
CC(C(=O)O)n1c2ccccc2c2cnn(C)c(=O)c21 (stereo unspecified) | > 40.7
CC(C)NC(=O)C(=O)Nc1cc2c3c(c1)C(C)C(=O)N3CCC2 (stereo unspecified) | 44.6 (≈ 141 µM)
COc1ccc(CN(C(C)=O)c2ccccc2C(=O)O)cc1 | 43.7 (≈ 146 µM)
CCCNc1nc2ccccc2c(=O)[nH]1 | > 30.5
Cc1cccc(NC(=O)CSc2ncnc3sc(C)cc23)c1 | 0.7 (≈ 2.12 µM)
CC(=O)c1ccc(NC(=O)/C(C#N)=C/c2ccncc2)cc1 | 43.2 (≈ 148 µM)
COc1ccc(-c2cc(C(=O)Nc3cccc(O)c3)no2)cc1 | < 0.3
Cc1cc(SCC(=O)N2CCCC2=O)nc2c(C)cccc12 | 2.3 (≈ 7.32 µM)
O=C(Nc1cccc(C(=O)NC2CCCCC2)c1)c1ccccc1 | 2.8 (≈ 8.68 µM)
N#Cc1cc([N+](=O)[O-])ccc1N1CCN(c2ccccc2O)CC1 | 2.4 (≈ 7.4 µM)
Cc1cccc(NC(=S)NCc2ccccc2)c1C | 35.1 (≈ 130 µM)
O=C(CSC(=S)N1CCCC1)Nc1cc2c(cc1Br)OCCO2 | < 0.4
CCS(=O)(=O)c1ccc(O)c(NC(=O)c2cc(-c3ccccn3)nc3ccccc23)c1 | > 65
O=C(COc1ccccc1O)NCCN1CCOCC1 | > 42
CC(OC(=O)c1ccc2c(c1)NC(=O)CS2)C(=O)c1ccc(F)cc1 (stereo unspecified) | 18.1 (≈ 50.4 µM)
O=C(c1cc(-c2ccc(O)cc2)on1)N1CCCC1 | > 38.7
O=Cc1cn(CC(=O)N2CCc3ccccc32)c2ccccc12 | 0.4 (≈ 1.31 µM)
COc1cccc2c1CCc1c-2nc2ccccc2c1C(=O)O | > 45.8
CC(=O)Nc1cccc(C(=O)OC2CCOC2=O)c1 (stereo unspecified) | > 39.5
CC12CCC(C/C1=N/O)C2(C)CBr (stereo unspecified) | > 36.9
CCC(C)NC(=O)c1ccc(CN2CCc3ccccc3C2)cc1 (stereo unspecified) | 7.1 (≈ 22 µM)
O=C1CCC([N+](=O)[O-])C(c2cccc([N+](=O)[O-])c2)N1 (stereo unspecified) | > 39.8

Other lines, results leading:

solubility kinetic [µg/mL] | SMILES
40.9 (≈ 145 µM) | CC(OC(=O)C1CC1C)C(=O)Nc1ccc(Cl)cn1 (stereo unspecified)
51.5 (≈ 148 µM) | CCOC(=O)N1CCN(C(=O)/C=C/c2ccc(OC)c(OC)c2)CC1
44.9 (≈ 148 µM) | Cc1ccccc1S(=O)(=O)/N=C(/c1ccccc1)N(C)C
> 47 | O=C(NCC(=O)N1CCN(c2ccccc2)CC1)c1ccco1
7.9 (≈ 19.9 µM) | CN(C)S(=O)(=O)c1ccc(C(=O)OCC(=O)NC(=O)NC2CCCC2)cc1
4.7 (≈ 13.4 µM) | COC(=O)C1CCN(Cc2cc(=O)oc3cc(C)c(Cl)cc23)CC1
27.3 (≈ 88.3 µM) | CC(NC(=O)c1cc2ccccc2oc1=O)c1ccc(O)cc1 (stereo unspecified)
> 39.1 | O=S(=O)(c1ccc(Cl)cc1)N1CCNCC1
> 41.6 | CC(=O)SC1CC(=O)N(c2c(C)cccc2C)C1=O (stereo unspecified)
31.3 (≈ 87.1 µM) | COc1cc(OC)cc(C(=O)NCCOC23CC4CC(CC(C4)C2)C3)c1
3.8 (≈ 8.95 µM) | O=S(=O)(c1ccccc1)N1CN(c2ccc(F)cc2F)c2nc3ccccc3nc21
> 37.7 | CC(=O)Nc1cccc(-c2nc3ccccc3[nH]2)c1
11.3 (≈ 36.5 µM) | CCOC(=O)c1ccccc1NC(=O)c1ccc2nc[nH]c2c1
< 0.3 | O=C(NCc1ccccc1)N1CCC(Cc2ccccc2)CC1
> 47.9 | O=C(NCCCN1CCOCC1)C(=O)NCCc1ccccc1
14.2 (≈ 52.7 µM) | Cc1ccc2oc(=O)n(CCOc3ccccc3)c2c1
> 44.2 | CCS(=O)(=O)c1ncc(CO)n1CCc1ccccc1
8.9 (≈ 28.5 µM) | CCC1(C)Cc2c(sc3nc(SC)[nH]c(=S)c23)CO1 (stereo unspecified)

solubility kinetic [µg/mL] | SMILES
4.6 (≈ 17.9 µM) | COc1ccc(C)cc1NC(=O)Nc1ccncc1
1.6 (≈ 3.39 µM) | CSCC[C@H](NC(=O)c1cccc(S(=O)(=O)N2CCCCC2)c1)c1nc2ccccc2[nH]1
1.1 (≈ 3.17 µM) | CC(C)COc1ccc(C(=O)OCC(=O)NCc2cccs2)cc1
> 50.4 | O=C(CSc1nnc(-c2ccco2)o1)Nc1ccccc1Cl
4 (≈ 12.6 µM) | O=C(CCc1ccccc1)Nc1nc2c(F)cc(F)cc2s1
10 (≈ 22.5 µM) | COc1ccc(CCNC(=O)CN2C(=O)NC(c3ccccc3)(c3ccccc3)C2=O)cc1
8.2 (≈ 24 µM) | CSc1sc(-c2ccnc(=S)[nH]2)c(-c2ccccc2)c1C#N
> 40.7 | Cc1ccc(-c2noc(CCC(=O)NC3CC3)n2)cc1
4.4 (≈ 12.9 µM) | COCCCNC(=O)c1cc2cc(Br)ccc2oc1=O
32.6 (≈ 142 µM) | CC(=O)Nc1cc(Br)ccc1O
40.6 (≈ 114 µM) | CS(=O)(=O)c1ccc2nc(NC(=O)CN3CCOCC3)sc2c1
6.8 (≈ 19.8 µM) | O=C(N[C@@H](Cc1ccccc1)C(=O)NC1CC1)c1ccc(Cl)cc1
32.2 (≈ 86.9 µM) | COc1ccc2c(CC(=O)OCc3nc4ccsc4c(=O)[nH]3)coc2c1
4.2 (≈ 13.1 µM) | CNc1oc(-c2cccs2)nc1S(=O)(=O)c1ccccc1
27.2 (≈ 88.1 µM) | Fc1ccc(CNC(=S)NCc2cccc(Cl)c2)cc1
> 50.9 | O=C(CN1C(=O)c2cccc([N+](=O)[O-])c2C1=O)NCc1ccccc1
32 (≈ 138 µM) | CC1=NOC(=O)/C1=C\c1ccc2c(c1)OCO2
> 56 | O=C(COc1ccc(F)cc1Br)NCCCN1CCCC1=O
